In US7538241B2, “Hsp90 family protein inhibitors” (Kyowa Hakko Kogyo Co., Ltd., priority 2003, dated 2009):

Tests used:
[1] = test system: human mammary cancer-derived KPL-4 cells; assay: Cell growth inhibition test with KPL-4 cells (WST-1); assay type: cell-based; details: KPL4, 72 hours, read-out: 50% growth inhibition concentration (GI50)
Method in brief: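 Growth inhibition from WST-1 absorbance difference (450 minus 655 nm) after 1 h, relative to untreated control as 100%, giving GI50. KPL-4 cells had 24 h pre-culture in DMEM/10% FCS before 72 h compound exposure at 37 °C under 5% CO2.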

[2] = test system: human chronic myelocytic leukemia-derived K562 cells; assay: Cell growth inhibition test with K562 cells (WST-1); assay type: cell-based; details: 72 hours, read-out: 50% growth inhibition concentration (GI50)
Method in brief: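 K562 cells at 1500 cells/well in 10% FCS RPMI 1640, pre-incubated 5 h, then exposed to serially diluted compound for 72 h at 37° C, 5% CO2. Viability read by WST-1 after 2 h (absorbance 450/655 nm); GI50 reported.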

| Compound | GI50 [1] [µM] | GI50 [2] [µM] |
| --- | --- | --- |
| CCc1c(O)cc(O)c(-c2ccc(F)c(Cl)c2)c1CCOCCO [Compound 312, 4-(3-Chloro-4-fluorophenyl)-6-ethyl-5-[2-(2-hydroxyethoxy)ethyl]benzene-1,3-diol] | – | ≤ 50 |
| CCc1c(O)cc(O)c(-c2ccc(F)c(C)c2)c1CCOCCO [Compound 314, 6-Ethyl-4-(4-fluoro-3-methylphenyl)-5-[2-(2-hydroxyethoxy)ethyl]benzene-1,3-diol] | – | ≤ 50 |
| CCc1c(O)cc(O)c(-c2ccccc2)c1Cc1n[nH]c(=O)o1 [Compound 315, 5-[(2-ethyl-3,5-dihydroxy-6-phenylphenyl)methyl]-3H-1,3,4-oxadiazol-2-one] | – | ≤ 50 |
| CCc1c(O)cc(O)c(-c2ccccc2)c1CCN1CCCC1CO (stereo not drawn) [Compound 316, 6-Ethyl-5-{2-[2-(hydroxymethyl)pyrrolidin-1-yl]ethyl}-4-phenylbenzene-1,3-diol] | – | ≤ 50 |
| CCc1c(O)cc(O)c(-c2ccccc2)c1Cc1nn(CCO)c(=O)o1 [Compound 318, 5-[(2-Ethyl-3,5-dihydroxy-6-phenylphenyl)methyl]-3-(2-hydroxyethyl)-3H-1,3,4-oxadiazol-2-one] | – | ≤ 50 |
| CCc1c(O)cc(O)c(-c2ccccc2)c1CCN1C(=O)OCC1C(=O)OC (stereo not drawn) [Compound 319, Methyl 3-[2-(2-ethyl-3,5-dihydroxy-6-phenylphenyl)ethyl]-2-oxo-1,3-oxazolidine-4-carboxylate] | – | ≤ 50 |
| CCc1c(O)cc(O)c(-c2ccccc2)c1CCN1CCC(O)C1 (stereo not drawn) [Compound 321, 6-Ethyl-5-[2-(3-hydroxypyrrolidin-1-yl)ethyl]-4-phenylbenzene-1,3-diol] | – | ≤ 50 |
| CCc1c(O)cc(O)c(-c2ccccc2)c1CC(=O)N(CCO)CCCOC [Compound 322, 2-(2-Ethyl-3,5-dihydroxy-6-phenylphenyl)-N-(2-hydroxyethyl)-N-(3-methoxypropyl)acetamide] | – | ≤ 50 |
| CCc1c(O)cc(O)c(-c2cccc(OC)c2)c1Cc1nn(CCO)c(=O)o1 [Compound 323, 5-{[2-Ethyl-3,5-dihydroxy-6-(3-methoxyphenyl)phenyl]methyl}-3-(2-hydroxyethyl)-3H-1,3,4-oxadiazol-2-one] | – | ≤ 50 |
| CCc1c(O)cc(O)c(-c2cccc(O)c2)c1Cc1nn(CCOC)c(=O)o1 [Compound 324, 5-{[2-Ethyl-3,5-dihydroxy-6-(3-hydroxyphenyl)phenyl]methyl}-3-(2-methoxyethyl)-3H-1,3,4-oxadiazol-2-one] | – | ≤ 50 |
| CCOC(=O)Oc1cc(OC(=O)OCC)c(-c2ccccc2)c(CCOCCOC)c1CC [Compound 325, 1,5-Bis(ethoxycarbonyloxy)-4-ethyl-3-[2-(2-methoxyethoxy)ethyl]-2-phenylbenzene] | – | ≤ 50 |
| CCc1c(OC(=O)N(C)C)cc(OC(=O)N(C)C)c(-c2ccccc2)c1CCOCCOC [Compound 326, 1,5-Bis(dimethylcarbamoyloxy)-4-ethyl-3-[2-(2-methoxyethoxy)ethyl]-2-phenylbenzene] | – | ≤ 50 |
| CCc1c(OC(=O)N2CCN(C)CC2)cc(O)c(-c2ccccc2)c1CCOCCOC [Compound 327, 4-Ethyl-3-[2-(2-methoxyethoxy)ethyl]-5-(4-methylpiperazin-1-ylcarbonyloxy)-2-phenylbenzen-1-ol] | – | ≤ 50 |
| CCc1c(OC(C)=O)cc(OC(C)=O)c(-c2ccccc2)c1CCOCCOC [Compound 328, 1,5-Bis(acetyloxy)-4-ethyl-3-[2-(2-methoxyethoxy)ethyl]-2-phenylbenzene] | – | ≤ 50 |

The next lines start with the values.

| GI50 [1] [µM] | GI50 [2] [µM] | Compound |
| --- | --- | --- |
| ≤ 50 | ≤ 50 | COCCN(C)C(=O)Cc1c(Br)c(O)cc(O)c1-c1ccccc1 [Compound 37, 2-(2-Bromo-3,5-dihydroxy-6-phenylphenyl)-N-(2-methoxyethyl)-N-methylacetamide] |
| ≤ 50 | ≤ 50 | COC(=O)Cc1c(C(C)=O)c(O)cc(O)c1-c1ccccc1 [Compound 69, Methyl 2-acetyl-3,5-dihydroxy-6-phenylphenylacetate] |
| ≤ 50 | ≤ 50 | CCc1c(O)cc(O)c(-c2ccccc2)c1CCOC [Compound 83, 6-Ethyl-5-(2-methoxyethyl)-4-phenylbenzene-1,3-diol] |
| ≤ 50 | ≤ 50 | OCCCc1c(Br)c(O)cc(O)c1-c1ccccc1 [Compound 104, 6-Bromo-5-(3-hydroxypropyl)-4-phenylbenzene-1,3-diol] |
| ≤ 50 | ≤ 50 | CCc1c(O)cc(O)c(-c2ccccc2)c1CCCO [Compound 123, 6-Ethyl-5-(3-hydroxypropyl)-4-phenylbenzene-1,3-diol] |
| ≤ 50 | ≤ 50 | CCc1c(O)cc(O)c(-c2cccc(C)c2)c1CCOC [Compound 130, 6-Ethyl-5-(2-methoxyethyl)-4-(3-methylphenyl)benzene-1,3-diol] |
| ≤ 50 | ≤ 50 | COCCOCCc1c(C(C)=O)c(O)cc(O)c1-c1ccccc1 [Compound 136, 1-[2,4-Dihydroxy-6-[2-(2-methoxyethoxy)ethyl]-5-phenylphenyl)ethanone] |
| – | ≤ 50 | CCc1c(O)cc(O)c(-c2cccc(C(=O)NCCOC)c2)c1CC1O[C@H](CO)[C@@H](CO)O1 [Compound 303, 5-{[(4R,5R)-4,5-Bis(hydroxymethyl)-1,3-dioxolan-2-yl]methyl}-6-ethyl-4-[3-(2-methoxyethyl)carbamoylphenyl]benzene-1,3-diol] |
| – | ≤ 50 | CCc1c(O)cc(O)c(-c2cccc(C(=O)NCCO)c2)c1CC1O[C@H](CO)[C@@H](CO)O1 [Compound 304, 5-{[(4R,5R)-4,5-Bis(hydroxymethyl)-1,3-dioxolan-2-yl]methyl}-6-ethyl-4-[3-(2-hydroxyethyl)carbamoylphenyl]benzene-1,3-diol] |
| – | ≤ 50 | CCc1c(O)cc(O)c(-c2cccc(C(=O)NC3CC3)c2)c1CC1O[C@H](CO)[C@@H](CO)O1 [Compound 305, 5-{[(4R,5R)-4,5-Bis(hydroxymethyl)-1,3-dioxolan-2-yl]methyl}-4-[3-(2-cyclopropylcarbamoyl)phenyl]-6-ethylbenzene-1,3-diol] |
| – | ≤ 50 | CCCNC(=O)c1cccc(-c2c(O)cc(O)c(CC)c2CC2O[C@H](CO)[C@@H](CO)O2)c1 [Compound 306, 5-{[(4R,5R)-4,5-Bis(hydroxymethyl)-1,3-dioxolan-2-yl]methyl}-6-ethyl-4-[3-(propylcarbamoyl)phenyl]benzene-1,3-diol] |
| – | ≤ 50 | CCc1c(O)cc(O)c(-c2cccc(O)c2)c1CC1O[C@H](COC)[C@@H](COC)O1 [Compound 307, 5-{[(4R,5R)-4,5-Bis(methoxymethyl)-1,3-dioxolan-2-yl]methyl}-6-ethyl-4-(3-hydroxyphenyl)benzene-1,3-diol] |
| – | ≤ 50 | CCc1c(O)cc(O)c(-c2ccccc2)c1CC1O[C@H](COC)[C@@H](COC)O1 [Compound 308, 5-{[(4R,5R)-4,5-Bis(methoxymethyl)-1,3-dioxolan-2-yl]methyl}-6-ethyl-4-phenylbenzene-1,3-diol] |
| – | ≤ 50 | CCc1c(O)cc(O)c(-c2ccc(OC)c(OC)c2)c1CCOCCO [Compound 309, 6-Ethyl-5-[2-(2-hydroxyethoxy)ethyl]-4-(3,4-dimethoxyphenyl)benzene-1,3-diol] |
| – | ≤ 50 | CC(=O)c1c(O)cc(O)c(-c2cccc(O)c2)c1CCOCCO [Compound 310, 1-{2,4-Dihydroxy-6-[2-(2-hydroxyethoxy)ethyl]-5-(3-hydroxyphenyl)phenyl}ethanone] |
